Patent publication US9920053B2, “N-(hetero)aryl-substituted heteroyclic derivatives useful for the treatment of diseases or conditions related to the central nervous system” (CHRONOS THERAPEUTICS LIMITED, priority 2014, dated 2018)

Tests used:
[1] = molecular target: human dopamine transporter (DAT) (Homo sapiens (Human), UniProt Q01959); experiment: Scintillation Proximity Assay (SPA) for human DAT binding ([3H]WIN-35,428); details: recombinant human DAT, CHO
Source text: (§1) Affinity is expressed in terms of inhibition constant (Ki) of the compounds of the invention for DAT, NET and SERT, and it is typically calculated from the IC50 values obtained in competition experiments using Cheng and Prusoff equation (Cheng and Prusoff, Biochem. Pharmacol. 22:3099, 1973). In the context of the present invention pKi values (corresponding to the antilogarithm of Ki) are used instead of Ki; pKi are only estimated to be accurate to about 0.3 log unit.
(§2) Chinese Hamster Ovary (CHO) cells stably expressing either human DAT (hDAT-CHO) or human NET (hNET-CHO) or human SERT (hSERT-CHO) are used for the membrane preparations for radioligand binding assays using Scintillation proximity Assay (SPA) technique. Each cell line is cultured independently in F-12K Nutrient Mixture containing 10% of Fetal Bovine Serum (FBS) supplemented with 450 μg/ml G-418. When cells are at 70-80% of confluence 3 mM Na Butyrate was added to the cell culture medium. After 24 h of incubation, the culture medium was removed and the cells detached with Versene (DAT) or by scraping (NET and SERT). Cell suspension is centrifuged at 41,000 g for 10 minutes at 4° C. The resultant pellets are re-suspended in 15 volumes of Ice-cold buffer (20 mM HEPES, 145 mM NaCl, 5 mM KCl, pH7.3), homogenized using an Ultra Turrax homogeniser and centrifuged as before. The resultant membrane pellets are re-suspended in up to 15 volume of ice-cold buffer, incubated for 20 minutes at 37° C and centrifuged as before at 41,000 g. The final membrane pellets are re-suspended into 5-10 volumes of ice-cold buffer, dispensed into 0.5 ml aliquots and stored at −80° C. until use. Protein concentration for each preparation is determined using Bio-Rad Protein Assay Kit.
(§3) The affinity of the compounds of the invention to the human DAT or NET or SERT transporters is assessed by using the [^3H]WIN-35,428 or [^3H]nisoxetine or [^3H]citalopram binding assays in recombinant human DAT, NET and SERT membranes with the SPA technology. The final assay volume is 50 μL in 384 well plates.
(§4) Briefly, 0.5 μL of test compound in neat DMSO or 0.5 μL of DMSO for total binding (TB) or 0.5 μL of indatraline 1 mM (10 μM final concentration) for non specific binding (NSB) are added to the assay plate. 50 μL of the SPA mixture is added to each well, containing: 30 μg/mL or 10 μg/mL or 25 μg/mL DAT, NET, SERT membranes, respectively; 5 nM [^3H]WIN-35,428 or 5 nM [^3H]nisoxetine or 1 nM [^3H]citalopram, for DAT, NET, SERT assay, respectively; 2.5 mg/mL or 1 mg/mL or 4 mg/mL WGA-PVT SPA beads (PerkinElmer RPNQ0001, for DAT, NET, SERT assay, respectively. All components are added to Assay Buffer (20 mM HEPES pH 7.4, 145 mM NaCl, 5 mM KCl, 0.01% Pluronic F-127). 0.02% BSA was used for DAT binding only. Plates are sealed with Topseal A and centrifuged 1 min, 800 rpm. Plates are loaded into a 1450 Microbeta TriLux (Perkin-Elmer) plate reader and the radioactivity counted after at least 4 hrs or overnight incubation at room temperature. Curve fitting and IC50 estimations are performed using a four parameter model in XLfit (IDBS, Guilford, UK) for Microdoft Excel (Microsoft, Redmond, Wash.).
The potency of the compounds of the invention in blocking the DAT function is measured using an uptake assay in a recombinant CHO cell line expressing human DAT (hDAT-CHO). Potency is measured in terms of pIC50 by testing the compounds of invention for the inhibition of [^3H]-dopamine uptake in DAT-CHO cells using a SPA technology in 384 well format.
Briefly, on the days of the experiment hDAT-CHO cells are detached using Versene and added (75,000 cells/mL) to the SPA Mixture, which contains the following components in Assay Buffer (20 mM HEPES, 145 mM NaCl, 5 mM KCl, 2 mM CaCl2, 1 mM MgCl2 and 1 g/L glucose, pH 7.3): 0.02% w/v of Pluronic F127, 2 mg/mL SPA Imaging beads (RPNQ0260, PerkinElmer), 10 μM pargyline and 80 nM of [^3H]-dopamine. […]

[2] = molecular target: human serotonin transporter (SERT) (Homo sapiens (Human), UniProt P31645); experiment: Scintillation Proximity Assay (SPA) for human SERT binding ([3H]citalopram); details: recombinant human SERT, CHO membranes
Chain of human serotonin transporter (SERT) (P31645 whole entry): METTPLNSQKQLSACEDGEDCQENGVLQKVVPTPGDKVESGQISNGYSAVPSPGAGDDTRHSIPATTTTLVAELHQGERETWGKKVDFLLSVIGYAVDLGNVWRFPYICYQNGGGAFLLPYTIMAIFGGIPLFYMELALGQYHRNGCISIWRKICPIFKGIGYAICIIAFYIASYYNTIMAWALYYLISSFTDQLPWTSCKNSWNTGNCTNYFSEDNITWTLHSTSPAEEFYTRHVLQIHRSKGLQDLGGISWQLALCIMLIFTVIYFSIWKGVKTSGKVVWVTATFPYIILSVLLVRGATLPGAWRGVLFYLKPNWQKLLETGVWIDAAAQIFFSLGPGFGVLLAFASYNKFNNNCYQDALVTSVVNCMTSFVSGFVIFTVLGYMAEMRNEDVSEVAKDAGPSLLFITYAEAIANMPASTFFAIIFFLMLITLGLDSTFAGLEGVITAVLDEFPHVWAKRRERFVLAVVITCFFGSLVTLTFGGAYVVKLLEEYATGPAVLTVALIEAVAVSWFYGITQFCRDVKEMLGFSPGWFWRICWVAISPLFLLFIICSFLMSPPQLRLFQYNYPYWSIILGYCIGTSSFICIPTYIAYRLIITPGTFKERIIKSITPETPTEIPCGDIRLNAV
Source text: as §1, §2, §3, §4

[3] = molecular target: human norepinephrine transporter (NET) (Homo sapiens (Human), UniProt P23975); experiment: Scintillation Proximity Assay (SPA) for human NET binding ([3H]nisoxetine); details: recombinant human NET, CHO membranes
Chain of human norepinephrine transporter (NET) (P23975 whole entry): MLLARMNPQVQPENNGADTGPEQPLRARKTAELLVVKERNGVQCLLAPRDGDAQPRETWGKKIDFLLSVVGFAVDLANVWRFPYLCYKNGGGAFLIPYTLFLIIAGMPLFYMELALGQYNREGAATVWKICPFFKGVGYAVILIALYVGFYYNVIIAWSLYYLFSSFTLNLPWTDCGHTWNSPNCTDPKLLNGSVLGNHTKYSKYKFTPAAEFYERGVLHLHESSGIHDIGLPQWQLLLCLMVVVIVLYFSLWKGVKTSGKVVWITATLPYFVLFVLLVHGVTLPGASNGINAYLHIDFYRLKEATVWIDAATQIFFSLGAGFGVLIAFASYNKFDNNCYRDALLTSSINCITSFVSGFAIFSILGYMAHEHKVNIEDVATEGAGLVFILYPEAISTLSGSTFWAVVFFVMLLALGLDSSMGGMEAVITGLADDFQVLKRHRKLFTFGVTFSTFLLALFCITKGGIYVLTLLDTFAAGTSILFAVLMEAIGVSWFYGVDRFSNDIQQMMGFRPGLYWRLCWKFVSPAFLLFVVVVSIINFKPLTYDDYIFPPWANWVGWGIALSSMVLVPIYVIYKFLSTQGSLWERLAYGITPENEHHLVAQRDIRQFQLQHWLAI
Source text: as §1, §2, §3, §4

[4] = molecular target: human ERG potassium channel (hERG) (Homo sapiens (Human), UniProt Q12809); experiment: hERG channel tail current recording using Rapid ICE automated patch-clamp; format: cell-based; details: HEK293 cells stably transfected with hERG
Chain of human ERG potassium channel (hERG) (Q12809 whole entry): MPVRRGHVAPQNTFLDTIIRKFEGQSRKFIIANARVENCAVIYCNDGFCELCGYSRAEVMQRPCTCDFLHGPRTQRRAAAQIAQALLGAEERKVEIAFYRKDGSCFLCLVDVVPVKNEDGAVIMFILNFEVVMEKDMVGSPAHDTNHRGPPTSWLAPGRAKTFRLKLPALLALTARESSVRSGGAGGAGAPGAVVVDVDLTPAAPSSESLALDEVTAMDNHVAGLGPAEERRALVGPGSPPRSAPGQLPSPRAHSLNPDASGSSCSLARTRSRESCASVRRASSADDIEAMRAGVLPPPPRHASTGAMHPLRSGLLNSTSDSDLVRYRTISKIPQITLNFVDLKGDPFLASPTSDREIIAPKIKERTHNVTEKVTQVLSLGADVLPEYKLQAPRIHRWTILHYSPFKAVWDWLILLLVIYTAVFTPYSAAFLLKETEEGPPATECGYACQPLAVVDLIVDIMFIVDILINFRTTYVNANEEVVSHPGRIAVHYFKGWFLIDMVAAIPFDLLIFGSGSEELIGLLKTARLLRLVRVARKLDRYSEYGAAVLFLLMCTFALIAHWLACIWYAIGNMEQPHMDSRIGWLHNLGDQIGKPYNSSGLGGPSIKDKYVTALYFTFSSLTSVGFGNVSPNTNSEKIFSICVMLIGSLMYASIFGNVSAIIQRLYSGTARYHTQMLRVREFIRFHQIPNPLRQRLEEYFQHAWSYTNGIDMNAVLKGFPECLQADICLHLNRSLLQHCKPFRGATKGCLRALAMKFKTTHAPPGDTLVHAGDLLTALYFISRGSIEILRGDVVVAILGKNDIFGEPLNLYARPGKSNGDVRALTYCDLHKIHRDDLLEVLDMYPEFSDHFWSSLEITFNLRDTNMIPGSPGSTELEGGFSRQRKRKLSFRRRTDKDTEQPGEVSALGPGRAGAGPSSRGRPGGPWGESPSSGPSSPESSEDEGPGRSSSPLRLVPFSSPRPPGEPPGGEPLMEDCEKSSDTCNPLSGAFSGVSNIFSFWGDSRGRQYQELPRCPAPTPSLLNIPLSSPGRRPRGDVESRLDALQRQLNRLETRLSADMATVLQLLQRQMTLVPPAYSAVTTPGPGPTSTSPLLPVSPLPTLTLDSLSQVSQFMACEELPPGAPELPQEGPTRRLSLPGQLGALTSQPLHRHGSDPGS
Description: The potency of the compounds of the invention in inhibiting human ERG potassium channel (hERG) tail current is assessed in a recombinant HEK293 cell line stably transfected with hERG cDNA using Rapid ICE™ (Rapid Ion Channel Electrophysiology) assay. Rapid ICE™ is an automated patch-clamp assay utilizing the PatchXpress 7000A system (Molecular Devices Corporation) or the QPatch HTX system (Sophion Bioscience A/S).
Briefly cells are cultivated for 24 to 72 hours before recordings in minimum essential medium supplemented with 10% FBS, 1% non-essential amino acids, 1% sodium pyruvate, 2 mM L-glutamine. The day of the experiment cells are detached with TrypLE and prepared to be loaded on the instrument. For PatchXpress cells are finally resuspended in 150 μl of Extracellular Buffer whereas for QPatch cells are resuspended in 7 ml Serum-Free Media containing 25 mM Hepes and Soybean trypsin inhibitor and immediately placed in the cell storage tank of the machine. The composition of the Extracellular Buffer is (mM): NaCl 137; KCl 4; CaCl2 1.8; MgCl2 1.0; D-glucose 10; N 2 hydroxyethylpiperazine-N′-2-ethanesulfonic acid (HEPES) 10; pH 7.4 with 1 M NaOH. The composition of the pipette solution is (mM): KCl 130; MgCl2 1.0; Ethylene glycol-bis(β-aminoethyl ether)-N,N,N′,N′-tetraacetic acid (EGTA) 5; MgATP 5; HEPES 10; pH 7.2 with 1 M KOH. The voltage protocol includes the following steps: step from −80 mV to −50 mV for 200 ms, +20 mV for 4.8 s, step to −50 mV for 5 s then step to the holding potential of −80 mV. Compounds of the invention are dissolved in DMSO and diluted in Extracellular Buffer to achieve final test concentrations (0.1, 1 and 10 μM) in 0.1% DMSO. The voltage protocol is run and recorded continuously during the experiment. The vehicle, corresponding to 0.1% DMSO in Extracellular Buffer, is then applied for 3 min followed by the test substance in triplicate. The standard combined exposure time is 5 min. The average of tail current amplitude values recorded from 4 sequential voltage pulses is used to calculate for each cell the effect of the test substance by calculating the residual current (% control) compared with vehicle pre-treatment. Data are reported as % inhibition for each concentration tested and IC50 values are estimated using DataXpress or QPatch software. At least two cells are tested, more if results diverge.

Chain of human dopamine transporter (DAT) (Q01959 whole entry): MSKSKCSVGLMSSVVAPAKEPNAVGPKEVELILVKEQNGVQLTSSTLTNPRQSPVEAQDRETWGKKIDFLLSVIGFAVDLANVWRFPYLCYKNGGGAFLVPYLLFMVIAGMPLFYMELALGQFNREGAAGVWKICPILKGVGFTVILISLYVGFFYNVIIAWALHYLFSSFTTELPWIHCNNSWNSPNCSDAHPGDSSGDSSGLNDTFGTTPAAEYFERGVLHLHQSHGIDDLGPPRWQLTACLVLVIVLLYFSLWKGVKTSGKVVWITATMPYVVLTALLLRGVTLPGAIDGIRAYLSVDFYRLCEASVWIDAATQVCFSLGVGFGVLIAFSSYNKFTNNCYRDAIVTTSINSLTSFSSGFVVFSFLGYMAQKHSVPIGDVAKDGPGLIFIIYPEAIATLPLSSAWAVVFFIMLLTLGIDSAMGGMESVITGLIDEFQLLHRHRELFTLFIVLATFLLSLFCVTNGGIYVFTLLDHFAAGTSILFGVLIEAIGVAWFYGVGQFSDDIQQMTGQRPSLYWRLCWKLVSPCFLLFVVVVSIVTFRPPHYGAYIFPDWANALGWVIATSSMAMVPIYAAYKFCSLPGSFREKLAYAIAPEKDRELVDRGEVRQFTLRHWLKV

Row | Compound | pIC50 DAT [1] | pIC50 SERT [2] | pIC50 NET [3] | IC50 [4] [µM] | IC50 [2] [µM]
1 | (3R or 3S)-3-[(cyclopropylamino)methyl]-1-[4-(3-fluorophenoxy)-6-(trifluoromethyl)pyrimidin-2-yl]pyrrolidin-3-ol [Example 32] | 8.47 | 4.36 | 6.63 | – | –
2 | OC1(CN2CCC(F)(F)C2)CCN(c2nc(Oc3cccc(F)c3)cc(C(F)(F)F)n2)CC1 [Example 6, 4-[(3,3-difluoropyrrolidin-1-yl)methyl]-1-[4-(3-fluorophenoxy)-6-(trifluoromethyl)pyrimidin-2-yl]piperidin-4-ol] | 6.89 | – | 5.94 | > 10 | 32.4
3 | OC1(CNC2CC2)CCN(c2nc(Oc3cccc(F)c3)cc(C(F)(F)F)n2)C1 (stereo not shown) [Example 30, 3-[(cyclopropylamino)methyl]-1-[4-(3-fluorophenoxy)-6-(trifluoromethyl)pyrimidin-2-yl]pyrrolidin-3-ol] | 8.72 | – | 6.78 | – | 34.7
4 | NCC1(O)CCN(c2cc(F)cc(Oc3cccc(F)c3)c2)CC1 [Example 14, 4-(aminomethyl)-1-[3-fluoro-5-(3-fluorophenoxy)phenyl]piperidin-4-ol] | 8.82 | – | 6.93 | – | 0.603
5 | NCC1(O)CCN(c2cc(F)cc(Oc3cccc(F)c3)c2F)CC1 [Example 15, 4-(aminomethyl)-1-[2,5-difluoro-3-(3-fluorophenoxy)phenyl]piperidin-4-ol] | 9.04 | – | 7.24 | – | 0.661
6 | NCC1(O)CCN(c2cccc(Oc3ccccc3)c2F)CC1 [Example 16, 4-(aminomethyl)-1-(2-fluoro-3-phenoxyphenyl)piperidin-4-ol] | 7.81 | – | 6.01 | – | 1.45
7 | CC(=O)NCC1(O)CCN(c2nc(Oc3cccc(F)c3)cc(C(F)(F)F)n2)CC1 [Example 24, N-({1-[4-(3-fluorophenoxy)-6-(trifluoromethyl)pyrimidin-2-yl]-4-hydroxypiperidin-4-yl}methyl)acetamide] | 7.42 | – | 5.04 | – | > 100
8 | NC1(CO)CCN(c2nc(Oc3cccc(F)c3)cc(C(F)(F)F)n2)CC1 [Example 20, {4-amino-1-[4-(3-fluorophenoxy)-6-(trifluoromethyl)pyrimidin-2-yl]piperidin-4-yl}methanol] | 8.39 | – | 6.50 | – | 5.13
9 | O=C(NCC1(O)CCN(c2nc(Oc3cccc(F)c3)cc(C(F)(F)F)n2)C1)C1CNC1 (stereo not shown) [Example 35, N-({1-[4-(3-fluorophenoxy)-6-(trifluoromethyl)pyrimidin-2-yl]-3-hydroxypyrrolidin-3-yl}methyl)azetidine-3-carboxamide] | 8.25 | – | 6.56 | – | 33.1
10 | CC(C)C(=O)NCC1(O)CCN(c2nc(Oc3cccc(F)c3)cc(C(F)(F)F)n2)C1 (stereo not shown) [Example 34, N-({1-[4-(3-fluorophenoxy)-6-(trifluoromethyl)pyrimidin-2-yl]-3-hydroxypyrrolidin-3-yl}methyl)-2-methylpropanamide] | 6.50 | – | 4.72 | – | > 100
11 | O=C(CC1CC1)NCC1(O)CCN(c2nc(Oc3cccc(F)c3)cc(C(F)(F)F)n2)CC1 [Example 22, 2-cyclopropyl-N-({1-[4-(3-fluorophenoxy)-6-(trifluoromethyl)pyrimidin-2-yl]-4-hydroxypiperidin-4-yl}methyl)acetamide] | 7.58 | – | 5.76 | – | > 100
12 | O=C1CCCN1CC1(O)CCN(c2nc(Oc3cccc(F)c3)cc(C(F)(F)F)n2)CC1 [Example 10, 1-({1-[4-(3-fluorophenoxy)-6-(trifluoromethyl)pyrimidin-2-yl]-4-hydroxypiperidin-4-yl}methyl)pyrrolidin-2-one] | 7.18 | – | 5.33 | – | > 100
13 | CC(C)(C)NCC1(O)CCN(c2nc(Oc3cccc(F)c3)cc(C(F)(F)F)n2)CC1 [Example 9, 4-[(tert-butylamino)methyl]-1-[4-(3-fluorophenoxy)-6-(trifluoromethyl)pyrimidin-2-yl]piperidin-4-ol] | 7.91 | – | 6.02 | – | 11.2
14 | Cl.NCC1(O)CCN(c2nc(Oc3cccc(F)c3)cc(C(F)(F)F)n2)CC1 [Example 12, 4-(aminomethyl)-1-[4-(3-fluorophenoxy)-6-(trifluoromethyl)pyrimidin-2-yl]piperidin-4-ol hydrochloride] | 8.56 | – | 6.84 | – | 8.71
15 | NCC1(O)CCN(c2cccc(Oc3cccc(F)c3)c2F)CC1 [Example 17, 4-(aminomethyl)-1-[2-fluoro-3-(3-fluorophenoxy)phenyl]piperidin-4-ol] | 8.17 | – | 6.49 | – | 2.09
16 | CC(C)OCC(=O)NCC1(O)CCN(c2nc(Oc3cccc(F)c3)cc(C(F)(F)F)n2)CC1 [Example 23, N-({1-[4-(3-fluorophenoxy)-6-(trifluoromethyl)pyrimidin-2-yl]-4-hydroxypiperidin-4-yl}methyl)-2-(propan-2-yloxy)acetamide] | 7.75 | – | 5.55 | – | > 100
